Data on 4 compounds can be found in PubChem BioAssay AID1259407 (Chemical Carcinogenesis Research Information System (CCRIS), 2018).

The subject of the data set is CCRIS mutagenicity, Ames/micronucleus/aberration tests. The experiment in a line: CCRIS mutagenicity studies.
Setting [1] is: Test System: AMES SALMONELLA TYPHIMURIUM, Strain/Indicator: TA98, Metabolic Activation: NONE, Method: PREINCUBATION
[2] abbreviates: Test System: AMES SALMONELLA TYPHIMURIUM, Strain/Indicator: TA100, Metabolic Activation: NONE, Method: PREINCUBATION
The mark [3] stands for this setting: Test System: AMES SALMONELLA TYPHIMURIUM, Strain/Indicator: TA1535, Metabolic Activation: NONE, Method: PREINCUBATION
Setting [4] is: Test System: AMES SALMONELLA TYPHIMURIUM, Strain/Indicator: TA1537, Metabolic Activation: NONE, Method: PREINCUBATION
The mark [5] stands for this setting: Test System: AMES SALMONELLA TYPHIMURIUM, Strain/Indicator: TA98, Metabolic Activation: NONE, Method: STANDARD PLATE.
The mark [6] stands for this setting: Test System: AMES SALMONELLA TYPHIMURIUM, Strain/Indicator: TA100, Metabolic Activation: NONE, Method: STANDARD PLATE.

Entries after “also recorded” stand apart in the source; their conditions may differ. Activity calls are given as the source filed them. The rule behind the calls is not given here.

As to `O=P(Oc1ccccc1)(Oc1ccccc1)Oc1ccccc1`, the mutagenic call (Test System: AMES SALMONELLA TYPHIMURIUM, Strain/Indicator: TA98, Metabolic Activation: HAMSTER, LIVER, S-9, AROCLOR 1254 (10%), Method: PREINCUBATION) was “inactive; negative”; the mutagenic call under setting [1] is “inactive; negative”; the mutagenic call (Test System: AMES SALMONELLA TYPHIMURIUM, Strain/Indicator: TA98, Metabolic Activation: RAT, LIVER, S-9, AROCLOR 1254 (10%), Method: PREINCUBATION) was “inactive; negative”; the mutagenic call (Test System: AMES SALMONELLA TYPHIMURIUM, Strain/Indicator: TA100, Metabolic Activation: HAMSTER, LIVER, S-9, AROCLOR 1254 (10%), Method: PREINCUBATION) is “inactive; negative”; the mutagenic call under setting [2] is “inactive; negative”; the mutagenic call (Test System: AMES SALMONELLA TYPHIMURIUM, Strain/Indicator: TA100, Metabolic Activation: RAT, LIVER, S-9, AROCLOR 1254 (10%), Method: PREINCUBATION) was “inactive; negative”. In addition, the mutagenic call is “inactive; negative” (Test System: AMES SALMONELLA TYPHIMURIUM, Strain/Indicator: TA1535, Metabolic Activation: HAMSTER, LIVER, S-9, AROCLOR 1254 (10 OR 50%), Method: PREINCUBATION); “inactive; negative” under setting [3]; “inactive; negative” (Test System: AMES SALMONELLA TYPHIMURIUM, Strain/Indicator: TA1535, Metabolic Activation: RAT, LIVER, S-9, AROCLOR 1254 (10%), Method: PREINCUBATION); “inactive; negative” (Test System: AMES SALMONELLA TYPHIMURIUM, Strain/Indicator: TA1537, Metabolic Activation: HAMSTER, LIVER, S-9, AROCLOR 1254 (10 OR 50%), Method: PREINCUBATION); “inactive; negative” under setting [4]; “inactive; negative” (Test System: AMES SALMONELLA TYPHIMURIUM, Strain/Indicator: TA1537, Metabolic Activation: RAT, LIVER, S-9, AROCLOR 1254 (10%), Method: PREINCUBATION).
Regarding `COc1ccc2nc(S(=O)Cc3ncc(C)c(OC)c3C)[nH]c2c1` (stereo not drawn), the mutagenic call (End Point: IN VITRO MICRONUCLEUS, Test System: AHH-1 CELLS, Metabolic Activation: NONE) was “active; positive”; the mutagenic call (End Point: IN VITRO MICRONUCLEUS, Test System: HEPATOCYTES, Species: RAT, Strain/Sex: SPRAGUE-DAWLEY/FEMALE, Metabolic Activation: NONE) was “active; positive; at 33 mg dose in 50% of rats”; the mutagenic call (End Point: IN VITRO MICRONUCLEUS, Test System: HUMAN LYMPHOCYTES, Metabolic Activation: NONE) was “active; positive (in 4/5 donors); also recorded: active; positive; only at 18 ug/ml and 1 of 2 donors”; the mutagenic call (End Point: IN VITRO MICRONUCLEUS, Test System: MCL-5 CELLS, Metabolic Activation: NONE) was “active; positive”; the mutagenic call (End Point: IN VIVO MICRONUCLEUS, Test System: BONE MARROW POLYCHROMATIC ERYTHROCYTES, Species: RAT, Strain/Sex: SPRAGUE-DAWLEY/FEMALE, Route: ORAL) was “inactive; negative; some increase but not statistically significant”; the mutagenic call (End Point: IN VIVO MICRONUCLEUS, Test System: HEPATOCYTES, Species: RAT, Strain/Sex: SPRAGUE-DAWLEY/FEMALE, Route: ORAL) is “active; positive”.
As to `C#C[C@]1(O)CC[C@H]2[C@@H]3CCC4=CC(=O)CC[C@@H]4[C@H]3CC[C@@]21C`, the mutagenic call (End Point: IN VITRO CHROMOSOMAL ABERRATIONS, Test System: HUMAN LYMPHOCYTES, Metabolic Activation: NONE) is “inactive; negative”; the mutagenic call (End Point: IN VITRO CHROMOSOMAL ABERRATIONS, Test System: HUMAN LYMPHOCYTES, Metabolic Activation: RAT, LIVER, S-9, PHENOBARBITONE) is “inactive; negative”; the mutagenic call (End Point: IN VIVO MICRONUCLEUS, Test System: HEPATOCYTES, Species: RAT, Strain/Sex: SPRAGUE-DAWLEY/FEMALE, Route: INTRAGASTRIC (GAVAGE)) is “inactive; negative (nonstatistically significant increase)”; the mutagenic call (Test System: AMES SALMONELLA TYPHIMURIUM, Strain/Indicator: TA98, Metabolic Activation: NONE) is “inactive; negative”; the mutagenic call under setting [1] was “inactive; negative”; the mutagenic call under setting [5] is “inactive; negative”. In addition, the mutagenic call is “inactive; negative” (Test System: AMES SALMONELLA TYPHIMURIUM, Strain/Indicator: TA98, Metabolic Activation: RAT, LIVER, S-9, AROCLOR 1254, Method: PREINCUBATION); “inactive; negative” (Test System: AMES SALMONELLA TYPHIMURIUM, Strain/Indicator: TA98, Metabolic Activation: RAT, LIVER, S-9, AROCLOR 1254, Method: STANDARD PLATE); “inactive; negative” (Test System: AMES SALMONELLA TYPHIMURIUM, Strain/Indicator: TA98, Metabolic Activation: S-9); “inactive; negative” (Test System: AMES SALMONELLA TYPHIMURIUM, Strain/Indicator: TA100, Metabolic Activation: NONE); “inactive; negative” under setting [2]; “inactive; negative” under setting [6]. Besides, the mutagenic call by setting is: (Test System: AMES SALMONELLA TYPHIMURIUM, Strain/Indicator: TA100, Metabolic Activation: RAT, LIVER, S-9, AROCLOR 1254, Method: PREINCUBATION) “inactive; negative”; (Test System: AMES SALMONELLA TYPHIMURIUM, Strain/Indicator: TA100, Metabolic Activation: RAT, LIVER, S-9, AROCLOR 1254, Method: STANDARD PLATE) “inactive; negative”; (Test System: AMES SALMONELLA TYPHIMURIUM, Strain/Indicator: TA100, Metabolic Activation: S-9) “inactive; negative”; (Test System: AMES SALMONELLA TYPHIMURIUM, Strain/Indicator: TA1535, Metabolic Activation: NONE) “inactive; negative”; under setting [3], “inactive; negative”; (Test System: AMES SALMONELLA TYPHIMURIUM, Strain/Indicator: TA1535, Metabolic Activation: NONE, Method: STANDARD PLATE) “inactive; negative”. The mutagenic call is “inactive; negative” (Test System: AMES SALMONELLA TYPHIMURIUM, Strain/Indicator: TA1535, Metabolic Activation: RAT, LIVER, S-9, AROCLOR 1254, Method: PREINCUBATION); “inactive; negative” (Test System: AMES SALMONELLA TYPHIMURIUM, Strain/Indicator: TA1535, Metabolic Activation: RAT, LIVER, S-9, AROCLOR 1254, Method: STANDARD PLATE); “inactive; negative” (Test System: AMES SALMONELLA TYPHIMURIUM, Strain/Indicator: TA1535, Metabolic Activation: S-9); “inactive; negative” (Test System: AMES SALMONELLA TYPHIMURIUM, Strain/Indicator: TA1537, Metabolic Activation: NONE); “inactive; negative” under setting [4]; “inactive; negative” (Test System: AMES SALMONELLA TYPHIMURIUM, Strain/Indicator: TA1537, Metabolic Activation: NONE, Method: STANDARD PLATE). Also, the mutagenic call runs as follows: (Test System: AMES SALMONELLA TYPHIMURIUM, Strain/Indicator: TA1537, Metabolic Activation: RAT, LIVER, S-9, AROCLOR 1254, Method: PREINCUBATION) “inactive; negative”; (Test System: AMES SALMONELLA TYPHIMURIUM, Strain/Indicator: TA1537, Metabolic Activation: RAT, LIVER, S-9, AROCLOR 1254, Method: STANDARD PLATE) “inactive; negative”; (Test System: AMES SALMONELLA TYPHIMURIUM, Strain/Indicator: TA1537, Metabolic Activation: S-9) “inactive; negative”; (Test System: AMES SALMONELLA TYPHIMURIUM, Strain/Indicator: TA1538, Metabolic Activation: NONE, Method: PREINCUBATION) “inactive; negative”; (Test System: AMES SALMONELLA TYPHIMURIUM, Strain/Indicator: TA1538, Metabolic Activation: NONE, Method: STANDARD PLATE) “inactive; negative”; (Test System: AMES SALMONELLA TYPHIMURIUM, Strain/Indicator: TA1538, Metabolic Activation: RAT, LIVER, S-9, AROCLOR 1254, Method: PREINCUBATION) “inactive; negative”. In addition, the mutagenic call reads like this: (Test System: AMES SALMONELLA TYPHIMURIUM, Strain/Indicator: TA1538, Metabolic Activation: RAT, LIVER, S-9, AROCLOR 1254, Method: STANDARD PLATE) “inactive; negative”; (Test System: E. COLI, Strain/Indicator: WP2 UVRA, Metabolic Activation: NONE) “inactive; negative”; (Test System: E. COLI, Strain/Indicator: WP2 UVRA, Metabolic Activation: S-9) “inactive; negative”.
For `O=C(Nc1ccccc1Cl)c1csc([N+](=O)[O-])c1`, the mutagenic call under setting [5] is “active; positive” and the mutagenic call under setting [6] is “active; positive”.
